Data published in patent US8119563B2, “N-substituted azacycles” (FMC Corporation, priority 2003, dated 2012).

Tested on: tobacco budworm (Heliothis virescens [Fabricius])
Assay: surface-treated diet test, insecticidal activity against tobacco budworm
Type: in vivo
Design: mortality: concentration or dose not given beside the values
Conditions: 0.25 millimoles of candidate insecticide on the surface of the diet, second instar larvae, five-day exposure
Procedure: Candidate insecticides were evaluated for activity against the tobacco budworm (Heliothis virescens [Fabricius]) in a surface-treated diet test.
In this test one mL of molten (65-70° C.) wheat germ-based artificial diet was pipetted into each well of a four by six (24 well) multi-well plate (ID# 430345-15.5 mm dia.×17.6 mm deep; Corning Costar Corp., One Alewife Center, Cambridge, Mass. 02140). The diet was allowed to cool to ambient temperature before treatment with candidate insecticide.
For a determination of insecticidal activity, solutions of the candidate insecticides were prepared for testing using a Packard 204DT Multiprobe® Robotic System (Packard Instrument Company, 800 Research Parkway, Meriden, Conn. 06450), in which the robot first diluted a standard 50 millimolar DMSO solution of candidate insecticide with a 1:1 water/acetone solution (V/V) in a ratio of 1:7 stock solution to water/acetone. The robot subsequently pipetted 40 microliters of the so-prepared solution onto the surface of the diet in each of three wells in the 24 multi-well plate. The process was repeated with solutions of seven other candidate insecticides. Once treated, the contents of the multi-well plate were allowed to dry, leaving 0.25 millimoles of candidate insecticide on the surface of the diet, or a concentration of 0.25 millimolar. Appropriate untreated controls containing only DMSO on the diet surface were also included in this test.
For evaluations of the insecticidal activity of a candidate insecticide at varying rates of application, the test was established as described above using sub-multiples of the standard 50 millimolar DMSO solution of candidate insecticide. For example, the standard 50 millimolar solution was diluted by the robot with DMSO to give 5, 0.5, 0.05, 0.005, 0.0005 millimolar, or more dilute solutions of the candidate insecticide. In these evaluations there were six replicates of each rate of application placed on the surface of the diet in the 24 multi-well plate, for a total of four rates of application of candidate insecticide in each plate.
In each well of the test plate was placed one second instar tobacco budworm larvea, each weighing approximately five milligrams. After the larvae were placed in each well, the plate was sealed with clear polyfilm adhesive tape. The tape over each well was perforated to ensure an adequate air supply. The plates were then held in a growth chamber at 25° C. and 60% relative humidity for five days (light 14 hours/day).
After the five-day exposure period insecticidal activity for each rate of application of candidate insecticide was assessed as percent inhibition of insect weight relative to the weight of insects from untreated controls, and percent mortality when compared to the total number of insects infested.
The test compounds of formula I are identified by numbers that correspond to those in Table 1.

[1] = compared to total number of insects infested
[2] = inhibition of insect weight relative to untreated controls

Compound | Percent Mortality [1] [%] | Percent Growth Inhibition [2] [%] | mortality (Heliothis virescens, 120 h, compared to total number of insects infested, read-out: Percent Mortality) [%] | pest or weed control at 0.25 mmol/well (Heliothis virescens, 120 h, inhibition of insect weight relative to untreated controls, read-out: Percent Growth Inhibition) [%]
O=C([O-])C1CCCCC1.OC1(C(c2ccc(OC(F)(F)F)cc2)c2ccc(OC(F)(F)F)cc2)CC[N+](O)(Cc2ccc(Oc3ccccn3)cc2)CC1 (centres unmarked) [Compound 502] | 100 | 100 | – | –
CCON=Cc1ccc(C[N+]2([O-])CCC(O)(C(O)(c3ccc(OC(F)(F)F)cc3)c3ccc(OC(F)(F)F)cc3)CC2)cc1 (centres unmarked) [Compound 424] | 100 | 100 | – | –
Cc1cccnc1Oc1ccc(C[N+]2([O-])CCC(O)(C(c3ccc(OC(F)(F)F)cc3)c3ccc(OC(F)(F)F)cc3)CC2)cc1 (centres unmarked) [Compound 349] | 100 | 100 | – | –
CCCCC(CC)C(=O)[O-].OC1(C(c2ccc(OC(F)(F)F)cc2)c2ccc(OC(F)(F)F)cc2)CC[N+](O)(Cc2ccc(Oc3ccccn3)cc2)CC1 (centres unmarked) [Compound 499] | 100 | 100 | – | –
OC1(C(c2ccc(C(F)(F)F)cc2)c2ccc(C(F)(F)F)cc2)CCN(Cc2ccc(OCc3ccccc3)cc2)CC1 [Compound 316] | 67 | 100 | – | –
[O-][N+]1(Cc2ccc(Oc3ncccn3)cc2)CCC(O)(C(c2ccc(OC(F)(F)C(F)C(F)(F)F)cc2)c2ccc(OC(F)(F)C(F)C(F)(F)F)cc2)CC1 (centres unmarked) [Compound 409] | 100 | 100 | – | –
CC1(C)C(C=C(Cl)C(F)(F)F)C1C(=O)[O-].OC1(C(c2ccc(C(F)(F)F)cc2)c2ccc(C(F)(F)F)cc2)CC[N+](O)(Cc2ccc(Oc3ccc(Cl)nn3)cc2)CC1 (mixture of isomers) [Compound 519] | 100 | 100 | – | –
OC1(C(c2ccc(OC(F)(F)F)cc2)c2ccc(OC(F)(F)F)cc2)CCN(Cc2ccc(-c3ncccn3)cc2)CC1 [Compound 20] | 100 | 100 | – | –
O=C(Nc1ccc(CN2CCC(O)(C(c3ccc(OC(F)(F)F)cc3)c3ccc(OC(F)(F)F)cc3)CC2)cc1)OCC1CC1 [Compound 327] | 100 | 100 | – | –
OC1(C(c2ccccc2Cl)c2ccccc2Cl)CCN(Cc2ccc(Oc3ncccn3)cc2)CC1 [Compound 1] | 0 | 57 | – | –
NCC1(C(c2ccc(C(F)(F)F)cc2)c2ccc(C(F)(F)F)cc2)CCN(Cc2ccc(OCC3CC3)cc2)CC1 [Compound 450] | 50 | 100 | – | –
[O-][N+]1(Cc2ccc(Oc3ccc(Cl)nn3)cc2)CCC(O)(C(c2ccc(C(F)(F)F)cc2)c2ccc(C(F)(F)F)cc2)CC1 (centres unmarked) [Compound 384] | 100 | 100 | – | –
CC(C)OC(=O)Nc1ccc(CN2CCC(O)(C(O)(c3ccc(OC(F)(F)F)cc3)c3ccc(OC(F)(F)F)cc3)CC2)cc1 [Compound 419] | 100 | 100 | – | –
COc1ccc(Oc2ccc(CN3CCC(O)(C(c4ccc(OC(F)(F)F)cc4)c4ccc(OC(F)(F)F)cc4)CC3)cc2)nn1 [Compound 274] | 100 | 100 | – | –
OC1(C(c2ccc(OC(F)(F)F)cc2)c2ccc(OC(F)(F)F)cc2)CCN(CCOc2ccc(Cl)cc2)CC1 [Compound 475] | 100 | 100 | – | –
CCON=Cc1ccc(CN2CCC(O)(C(c3ccc(OC(F)(F)F)cc3)c3ccc(Cl)cc3Cl)CC2)cc1 (centres unmarked) [Compound 444] | 100 | 100 | – | –
OC1(C(c2ccc(OC(F)(F)F)cc2)c2ccccc2Cl)CCN(Cc2ccc(Oc3ccccn3)cc2)CC1 (centres unmarked) [Compound 437] | 100 | 100 | – | –
[O-][N+]1(Cc2ccc(Oc3ccccn3)cc2)CCC(O)(C(c2ccc(OC(F)(F)F)cc2)c2ccc(Cl)c(Cl)c2)CC1 (centres unmarked) [Compound 455] | 100 | 100 | – | –
O=C(NC1CCCCC1)Oc1ccc(CN2CCC(O)(C(c3ccc(OC(F)(F)F)cc3)c3ccc(OC(F)(F)F)cc3)CC2)cc1 [Compound 329] | 67 | 100 | – | –

Compound | Percent Mortality [1] [%] | Percent Growth Inhibition [2] [%] | mortality (Heliothis virescens, 120 h, compared to total number of insects infested, read-out: Percent Mortality) [%] | pest or weed control at 0.25 mmol/well (Heliothis virescens, 120 h, inhibition of insect weight relative to untreated controls, read-out: Percent Growth Inhibition) [%]
COCCON=Cc1ccc(CN2CCC(O)(C(c3ccc(OC(F)(F)F)cc3)c3ccc(OC(F)(F)F)cc3)CC2)cc1 [Compound 266] | 100 | 100 | – | –
[O-][N+]1(Cc2ccc(Oc3ccccn3)cc2)CCC(O)(C(c2ccc(OC(F)(F)F)cc2)c2ccc(OC(F)(F)F)cc2)CC1 (centres unmarked) [Compound 117, 4-{bis[4-(trifluoromethoxy)phenyl]methyl}-4-hydroxy-1-[(4-(2-pyridyloxy)phenyl)methyl]piperidin-1-oxide] | – | – | 100 | 100
CCON=Cc1ccc(C[N+]2(O)CCC(O)(C(c3ccc(OC(F)(F)F)cc3)c3ccc(OC(F)(F)F)cc3)CC2)cc1.O=C([O-])C1CCCCC1 (centres unmarked) [Compound 493] | 100 | 100 | – | –
Cc1ccnc(Oc2ccc(CN3CCC(O)(C(c4ccc(OC(F)(F)F)cc4)c4ccc(OC(F)(F)F)cc4)CC3)cc2)c1 [Compound 321] | 100 | 100 | – | –
[O-][N+]1(CCCOc2ccc(Cl)cc2)CCC(O)(C(c2ccc(OC(F)(F)F)cc2)c2ccc(OC(F)(F)F)cc2)CC1 (centres unmarked) [Compound 481] | 100 | 100 | – | –
CON=C(Cl)c1ccc(CN2CCC(O)(C(c3ccc(OC(F)(F)F)cc3)c3ccc(OC(F)(F)F)cc3)CC2)cc1 [Compound 277] | 100 | 100 | – | –
OC1(C(c2ccc(F)cc2)c2ccc(OC(F)(F)F)cc2)CCN(Cc2ccc(Oc3ccccn3)cc2)CC1 (racemic) [Compound 268] | 100 | 100 | – | –
CONC(=O)c1ccc(CN2CCC(O)(C(c3ccc(OC(F)(F)F)cc3)c3ccc(OC(F)(F)F)cc3)CC2)cc1 [Compound 285] | 100 | 100 | – | –
[O-][N+]1(Cc2ccc(Oc3ncccn3)cc2)CCC(O)(C(c2ccc(C(F)(F)F)cc2)c2ccc(C(F)(F)F)cc2)CC1 (centres unmarked) [Compound 120] | 100 | 100 | – | –
CCCOc1ccc(CN2CCC(O)(C(O)(c3ccc(C(F)(F)F)cc3)c3ccc(C(F)(F)F)cc3)CC2)cc1 [Compound 92] | 100 | 100 | – | –
CC1(C)COC(c2ccc(CN3CCC(O)(C(c4ccc(OC(F)(F)F)cc4)c4ccc(OC(F)(F)F)cc4)CC3)cc2)OC1 [Compound 280] | 100 | 100 | – | –
OC1(C(c2ccc(C(F)(F)F)cc2)c2cc(Cl)cc(Cl)c2)CCN(Cc2ccc(Oc3ncccn3)cc2)CC1 (centres unmarked) [Compound 3] | 100 | 100 | – | –
OC1(C(c2ccc(C(F)(F)F)cc2)c2ccccc2Cl)CCN(Cc2ccc(Oc3ncccn3)cc2)CC1 (centres unmarked) [Compound 18] | 100 | 100 | – | –
CC(C)=CCCC(C)=CCON=Cc1ccc(CN2CCC(O)(C(c3ccc(OC(F)(F)F)cc3)c3ccc(OC(F)(F)F)cc3)CC2)cc1 [Compound 305] | 0 | 31 | – | –
COc1ccc(C(c2ccc(OC(F)(F)F)cc2)C2(O)CC[N+]([O-])(Cc3ccc(Oc4ccccn4)cc3)CC2)cc1 (centres unmarked) [Compound 338] | 100 | 100 | – | –
O=C(NC1CC1)Oc1ccc(CN2CCC(O)(C(c3ccc(OC(F)(F)F)cc3)c3ccc(OC(F)(F)F)cc3)CC2)cc1 [Compound 298] | 100 | 100 | – | –
OC1(C(c2ccc3c(c2)OC(F)(F)O3)c2ccc3c(c2)OC(F)(F)O3)CCN(Cc2ccc(Oc3ccccn3)cc2)CC1 [Compound 446] | 100 | 100 | – | –
[O-][N+]1(Cc2ccc(OCC3CC3)cc2)CCC(O)(C(c2ccc(C(F)(F)F)cc2)c2ccc(C(F)(F)F)cc2)CC1 (centres unmarked) [Compound 383] | 100 | 100 | – | –
